According to patent US8426447B2, “Spiro-tricyclic ring compounds as beta-secretase modulators and methods of use” (Amgen Inc., priority 2008, dated 2013):

What was measured:
[1] = molecular target: T1, BACE1 (Homo sapiens, UniProt P56817); experiment: In Vitro BACE Cell-based Assay (HEK cell assay): Aβ40 in conditioned medium of cells stably expressing Amyloid Precursor Protein, sandwich ELISA; conditions: read-out: HEK cell assay
Protocol: In Vitro BACE Cell-based Assay
The cell-based assay measures inhibition or reduction of Aβ40 in conditioned medium of test compound treated cells expressing amyloid precursor protein.
Cells stably expressing Amyloid Precursor Protein (APP) were plated at a density of 40K cells/well in 96 well plates (Costar). The cells were cultivated for 24 hours at 37° C. and 5% CO2 in DMEM supplemented with 10% FBS. The test compounds were then added to cells in 10-point dose response concentrations with the starting concentration being either 100 μM or 10 μM. The compounds were diluted from stock solutions in DMSO and the final DMSO concentration of the test compounds on cells was 0.1%. After 24 h of incubation with the test compounds the supernatant conditioned media was collected and the Aβ 40 levels were determined using a sandwich ELISA. The IC50 of the compound was calculated from the percent of control or percent inhibition of Aβ 40 as a function of the concentration of the test compound.
The sandwich ELISA to detect Aβ 40 was performed in 96 well microtiter plates, which were pre-treated with goat anti-rabbit IgG (Pierce). The capture and detecting antibody pair that were used to detect Aβ 40 from cell supernatants were affinity purified pAb40 (Biosource) and biotinylated 6E10 (Signet Labs Inc.), respectively. The optimal concentration for the pAb40 antibody was 3 μg/ml in Superblock/TBS (Pierce) that was supplemented with 0.05% Tween 20 (Sigma).
Cellular supernatants were incubated with the capture antibody for 3 h at 4° C., followed by 3 wash steps in TBS-tween (0.05%). The detecting antibody incubation was for 2 h at 4° C., again followed by the wash steps as described previously. The final readout of the ELISA is Time-Resolved Fluorescence (counts per minute) using Delfia reagents Streptavidin-Europium and Enhancement solutions (Perkin Elmer) and the Victor 2 multilabel counter (Perkin Elmer).

[2] = molecular target: T1, BACE1; experiment: In Vitro Enzymatic BACE FRET (Fluorescence Resonance Energy Transfer) Assay; format: biochemical; conditions: read-out: BACE1 FRET assay
Protocol: In Vitro Enzymatic BACE FRET (Fluorescence Resonance Energy Transfer) Assay (Enzyme Assay Data in the Example Tables I, II, III & IV) The assay buffer used in this screen is 0.05 M acetate, pH 4.2, 10% DMSO final, 100 uM genapol (which is a nonionic detergent, below its Critical Micelle Concentration). […] This assay is effectively started by the addition of FRET substrate (50 nM) and the combination is incubated for one hour. The FRET assay is terminated with by addition of Tris buffer, which raises the pH to neutrality, and the fluorescence is determined. The FRET substrate is a peptide with commercially available fluorophore and quencher, on opposite sides of the BACE cleavage site. […]

[3] = HEK cell-based assay, Aβ40 in conditioned medium, IC50 class symbols
[4] = in vitro BACE FRET enzyme assay, IC50 class symbols

T1 sequence (P56817 46-501, species assumed): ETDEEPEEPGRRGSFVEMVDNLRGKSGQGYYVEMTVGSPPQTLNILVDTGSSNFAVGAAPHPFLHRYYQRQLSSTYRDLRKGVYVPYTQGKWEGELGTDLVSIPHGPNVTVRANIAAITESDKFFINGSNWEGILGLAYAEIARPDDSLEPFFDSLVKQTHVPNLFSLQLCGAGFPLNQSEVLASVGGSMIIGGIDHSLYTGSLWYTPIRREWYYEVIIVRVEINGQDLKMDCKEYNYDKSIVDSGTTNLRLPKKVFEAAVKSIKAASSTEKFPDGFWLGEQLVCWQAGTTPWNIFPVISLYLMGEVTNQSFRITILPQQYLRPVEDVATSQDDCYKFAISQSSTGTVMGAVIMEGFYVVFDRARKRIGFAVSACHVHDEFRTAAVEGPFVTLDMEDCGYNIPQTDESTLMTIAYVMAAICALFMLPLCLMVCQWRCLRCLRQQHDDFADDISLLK

Work on `NC1=N[C@@]2(CO1)c1ccccc1Oc1ccc(-c3cncnc3)cc12` [compound 844] yielded an IC50 ([1]; Table IV, class symbols) of 0.1 to 1 µM and an IC50 ([2]; Table IV, class symbols) of 0.1 to 1 µM.

In the case of `NC1=N[C@@]2(CO1)c1cc(Br)ccc1Oc1c(F)cccc12` [compound 558], the IC50 ([1]; Table IV, class symbols) is reported as > 5 µM and the IC50 ([2]; Table IV, class symbols) is reported as 1 to 5 µM.

`NC1=N[C@@]2(CO1)c1cc(-c3cccnc3N3CCOCC3)ccc1Oc1cnc(N3CCOCC3)cc12` [compound 336] was tested, and the IC50 [1, 3] was 0.1 to 1 µM and the IC50 [2, 4] was < 0.1 µM.

With `CC(C)C[C@@H]1CN(c2ccc3c(c2)[C@]2(COC(N)=N2)c2cc(-c4cccnc4)ccc2O3)CCO1` [compound 360] the IC50 [1, 3] was 0.1 to 1 µM and the IC50 [2, 4] was 0.1 to 1 µM.

With `N#Cc1ccc(-c2cnc3c(c2)[C@]2(COC(N)=N2)c2cc(-c4cncnc4)ccc2O3)cc1` [compound 473] the IC50 ([1]; HEK cells) was < 0.1 µM and the IC50 [2] was < 0.1 µM.

With `CCCOc1ccc2c(c1)C1(COC(N)=N1)c1cc(-c3cncnc3)ccc1O2` (stereo not shown) [Example 9, 2′-propoxy-7′-(5-pyrimidinyl)spiro[1,3-oxazole-4,9′-xanthen]-2-amine] the IC50 ([1]; Table 1, Aβ40, 24 h incubation) was 0.1 to 1 µM and the IC50 ([2]; Table 1) was < 0.1 µM.

`CC1(COc2cnc3c(c2)[C@]2(COC(N)=N2)c2cc(-c4c(F)cccc4F)ccc2O3)COC1` [compound 411] was tested, and the IC50 [1, 3] was < 0.1 µM and the IC50 [2, 4] was < 0.1 µM.

`CC(C)(C)C#Cc1ccc2c(c1)[C@]1(COC(N)=N1)c1cc(-c3ccc(F)nc3)ccc1O2` [147a] was tested, and the IC50 ([1]; Table III, IC50's in uM ranges) was 0.1 to 1 µM and the IC50 ([2]; Table III, IC50's in uM ranges) was < 0.1 µM.

`CC(C)(C)COc1ccc2c(c1)[C@]1(COC(N)=N1)c1cc(-c3csc(C(F)F)c3)ccc1O2` [compound 737] was tested, and the IC50 [1] was 0.1 to 1 µM and the IC50 [2] was < 0.1 µM.

With `CC(C)(C)CCc1ccc2c(c1)[C@]1(COC(N)=N1)c1cc(-c3ccc(F)nc3)ccc1O2` [153b] the IC50 ([1]; Table III, IC50's in uM ranges) was 0.1 to 1 µM and the IC50 ([2]; Table III, IC50's in uM ranges) was < 0.1 µM.

`NC1=N[C@@]2(CO1)c1cc(-c3cccnc3)ccc1Oc1ccc(-c3ccsc3)cc12` [compound 672] was tested, and the IC50 [1] was < 0.1 µM and the IC50 [2] was < 0.1 µM.

With `CC(C)(C)COc1ccc2c(c1)[C@]1(COC(N)=N1)c1cc(-c3cnccc3Cl)ccc1O2` [compound 883] the IC50 ([1]; Table IV, class symbols) was 0.1 to 1 µM and the IC50 ([2]; Table IV, class symbols) was < 0.1 µM.

For `NC1=N[C@@]2(CO1)c1cc(-c3cccnc3)ccc1Oc1cnc(N3CCC(=O)CC3)cc12` [compound 442], the IC50 ([1]; HEK cells) was < 0.1 µM and the IC50 [2] was < 0.1 µM.

With `NC1=N[C@@]2(CO1)c1cc(Br)ccc1Oc1ccc(Oc3ccccn3)cc12` [compound 206] the IC50 ([1]; Table III, IC50's in uM ranges) was 0.1 to 1 µM and the IC50 ([2]; Table III, IC50's in uM ranges) was > 5 µM.

`CC1(C)Cc2cc(-c3ccc4c(c3)[C@]3(COC(N)=N3)c3cc(-c5cncnc5)ccc3O4)ccc2O1` [compound 841] was tested, and the IC50 ([1]; Table IV, class symbols) was 0.1 to 1 µM and the IC50 ([2]; Table IV, class symbols) was < 0.1 µM.

Work on `CC(=O)COc1ccc2c(c1)[C@]1(COC(N)=N1)c1cc(-c3cccnc3)cnc1O2` [compound 865] yielded an IC50 ([1]; Table IV, class symbols) of 1 to 5 µM and an IC50 ([2]; Table IV, class symbols) of 1 to 5 µM.

For `COc1ccc2c(c1)[C@]1(COC(N)=N1)c1cc(Br)cc(F)c1O2` [compound 377], the IC50 [1, 3] was 1 to 5 µM and the IC50 [2, 4] was > 5 µM.

In the case of `COc1ncccc1-c1ccc2c(c1)[C@@]1(COC(N)=N1)c1cc(OCC(C)(C)C)ccc1O2` [Example 77, (4S)-2′-(2,2-dimethylpropoxy)-7′-(2-methoxy-3-pyridinyl)spiro[1,3-oxazole-4,9′-xanthen]-2-amine], the IC50 ([1]; Table II, Aβ40, 24 h incubation) is reported as 1 to 5 µM and the IC50 ([2]; Table II) is reported as < 0.1 µM.

`NC1=N[C@]2(CO1)c1cc(-c3ccc(OC(F)(F)F)cc3)ccc1Oc1ccc(-c3cncnc3)cc12` [compound 840] was tested, and the IC50 ([1]; Table IV, class symbols) was 0.1 to 1 µM and the IC50 ([2]; Table IV, class symbols) was < 0.1 µM.

With `COc1ccc2c(c1)[C@]1(COC(N)=N1)c1cc(NC(=O)COc3ccccc3)ccc1O2` [compound 374] the IC50 [1, 3] was 1 to 5 µM and the IC50 [2, 4] was 0.1 to 1 µM.

For `COC(=O)c1ccc(-c2ccc3c(c2)[C@]2(COC(N)=N2)c2cc(-c4cccnc4)ccc2O3)s1` [compound 722], the IC50 [1] was < 0.1 µM and the IC50 [2] was < 0.1 µM.

In the case of `CC(C)(C)CCOc1nccc2c1C1(COC(N)=N1)c1cc(-c3cncnc3)ccc1O2` (stereo not shown) [Example 109, 1-(3,3-Dimethylbutoxy)-8-(pyrimidin-5-yl)-5′H-spiro[chromeno[3,2-c]pyridine-10,4′-oxazol]-2′-amine], the IC50 ([1]; Table III, IC50's in uM ranges) is reported as 0.1 to 1 µM and the IC50 ([2]; Table III, IC50's in uM ranges) is reported as 0.1 to 1 µM.

In the case of `NC1=N[C@@]2(CO1)c1cc(-c3ccc(F)cc3)ccc1Oc1ncc(C3=CCOCC3)cc12` [compound 583], the IC50 ([1]; Table IV, class symbols) is reported as < 0.1 µM and the IC50 ([2]; Table IV, class symbols) is reported as < 0.1 µM.
